{"source": "patent US20230095912A1", "about": "“Composition and Methods for Selective Degradation of Engineered Proteins” (Celgene Corporation, priority 2021, published 2023)", "key": {"[1]": {"molecular_target": "T1, IKZF1 ZNF2_3 Q1F tagged CD19 CAR (Homo sapiens, UniProt Q13422, Q146F)", "T1 construct": "expressed in transfected cells; host or cells: Jurkat wild type, Jurkat CRBN knockout, Jurkat reporter line; lentiviral transduction", "T1 sequence (Q13422 141-196 Q146F)": "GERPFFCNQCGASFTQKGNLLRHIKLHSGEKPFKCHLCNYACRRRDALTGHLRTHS", "experiment": "CRBN and ubiquitin-proteasome pathway dependence of Q1F-tagged CAR degradation in Jurkat cells", "type": "cell-based", "parameters": "tagged CAR remaining / levels of tagged CAR: dose or concentration left out as unconfirmed", "settings": "Jurkat CRBN KO cells, 1 hour", "procedure": "(§1) The dependence of Q1F-degron-tagged CAR degradation on CRBN and ubiquitin proteolytic pathway were assessed. CD19-targeting CAR was tagged with either IKZF1 ZNF2_3 Q1F (SEQ ID NO: 19) or Q1F/G6N (SEQ ID NO: 59). Lentiviral vectors containing these tagged CARs were then transduced into wildtype (WT) or cereblon (CRBN) knockout (KO) Jurkat cells.\n(§2) Next, dependence of CAR degradation on the ubiquitin-proteosome pathway was tested by treating WT Jurkats transduced with tagged CAR for 2 hours with DMSO, 20 nM or 200 nM Compound C alone, or alongside either 2 μM of the NEDD8 E1 enzyme inhibitor MLN4924 or 2 μM of proteasome blocker Bortezomib (FIG. 11C)."}, "[2]": {"tested_on": "IKZF1 ZNF2_3 Q1F tagged CD19 CAR", "experiment": "CRBN and ubiquitin-proteasome pathway dependence of Q1F-tagged CAR degradation in Jurkat cells", "type": "cell-based, human", "parameters": "tagged CAR remaining / levels of tagged CAR: dose or concentration left out as unconfirmed", "procedure": "as §1, §2"}, "[3]": {"tested_on": "IKZF1 ZNF2_3 Q1F tagged CD19 CAR", "experiment": "Jurkat reporter assay (tdTomato), signaling of Q1F-tagged CAR after degradation", "type": "cell-based, human", "settings": "1 mM pre-treatment 12 hours, co-culture with CD19-expressing K562 8 hours", "procedure": "A lentiviral vector encoding ZNF2_3 Q1F or Q1F/G6N tagged CD19 CAR was transduced into the reporter cell line. […] Levels of tdTomato in the form of the overall percent of positive cells (FIG. 12A), as well as mean fluorescence intensity (MFI, FIG. 12B) were assessed by flow cytometry. Degradation of CARs containing the ZNF2_3 Q1F degron decreased signaling by around 30% using 1 mM Compound C and by around 75% using Compound B; this relative difference correlates with the depth of degradation seen for each. Further, the reduction in activity depends upon having an intact G-motif, as the G6N mutation prevents inhibition."}, "[4]": {"tested_on": "IKZF1 ZNF2_3 Q1F tagged anti-ROR1 CAR", "experiment": "CAR surface levels in primary T cells, flow cytometry", "type": "cell-based, human", "settings": "dose titration", "procedure": "(§3) The ability to use compounds to titrate primary CAR T effector function by degrading IKZF1 ZNF2_3 Q1F tagged anti-ROR1 CAR (FIG. 13A) was evaluated. The CAR included similar transmembrane, costimulatory, and signaling domains as the CD19 CAR, but with an anti-ROR1 scFv. A lentiviral vector encoding ZNF2_3 Q1F tagged or untagged anti-ROR1 CAR was transduced into activated primary T cells. Transduced cells were expanded for 10 days in media supplemented with IL2, IL7, and IL15, then frozen. Prior to the experiment, cells were thawed and allowed to rest in media with a dose titration of Compound C or without drug. […] To determine the impacts of CAR degradation on CAR T activity, cells were then co-cultured with a Nuclight red labeled H-1975 ROR1 expressing target cell line at a 1:4 effector:target cell ratio. Co-cultures were placed in the Incucyte for 24 hours to monitor tumor killing via Nuclight red signal (FIG. 14A), and supernatants were collected to measure proinflammatory cytokine production by MSD (FIG. 14B-14D; IL-2, TNFα, and IFNγ)."}, "[5]": {"tested_on": "H-1975 ROR1 expressing target cell line", "experiment": "Primary CAR T effector function (tumor killing, cytokine production) in co-culture", "type": "cell-based", "settings": "1:4 effector:target, 24 hours, different concentrations", "procedure": "as §3"}, "ePL-tagged Aiolos": {"molecular_target": "T2, ePL-tagged Aiolos (Homo sapiens, UniProt Q96SW2+Q9UKT9)", "T2 construct": "expressed in transfected cells", "T2 sequence (Q9UKT9 whole entry)": "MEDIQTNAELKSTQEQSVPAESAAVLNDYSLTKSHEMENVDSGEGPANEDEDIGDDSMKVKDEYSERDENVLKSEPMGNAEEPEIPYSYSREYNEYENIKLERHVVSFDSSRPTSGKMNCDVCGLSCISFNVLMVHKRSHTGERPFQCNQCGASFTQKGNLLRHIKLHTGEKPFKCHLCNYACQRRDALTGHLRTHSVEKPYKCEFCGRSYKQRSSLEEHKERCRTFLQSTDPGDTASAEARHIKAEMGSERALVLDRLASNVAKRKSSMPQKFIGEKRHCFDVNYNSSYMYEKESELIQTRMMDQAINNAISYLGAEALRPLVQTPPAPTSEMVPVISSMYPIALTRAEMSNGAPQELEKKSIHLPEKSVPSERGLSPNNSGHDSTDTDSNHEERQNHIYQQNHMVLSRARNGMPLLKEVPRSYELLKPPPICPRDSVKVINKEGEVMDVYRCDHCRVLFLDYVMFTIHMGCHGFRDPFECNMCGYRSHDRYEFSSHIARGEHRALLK", "T2 sequence (Q96SW2 whole entry)": "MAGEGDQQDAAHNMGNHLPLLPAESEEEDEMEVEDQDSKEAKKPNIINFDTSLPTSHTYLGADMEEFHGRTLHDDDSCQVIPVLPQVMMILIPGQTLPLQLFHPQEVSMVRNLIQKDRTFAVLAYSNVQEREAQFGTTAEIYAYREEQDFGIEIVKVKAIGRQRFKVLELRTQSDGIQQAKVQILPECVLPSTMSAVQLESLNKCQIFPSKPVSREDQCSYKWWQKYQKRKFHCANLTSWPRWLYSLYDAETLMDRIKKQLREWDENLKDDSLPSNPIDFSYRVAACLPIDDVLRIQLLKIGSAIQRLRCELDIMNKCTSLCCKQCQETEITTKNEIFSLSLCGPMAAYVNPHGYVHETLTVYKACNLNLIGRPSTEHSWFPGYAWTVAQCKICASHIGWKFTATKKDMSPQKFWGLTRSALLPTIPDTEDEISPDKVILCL", "T2 sequence (Q16531 whole entry partner)": "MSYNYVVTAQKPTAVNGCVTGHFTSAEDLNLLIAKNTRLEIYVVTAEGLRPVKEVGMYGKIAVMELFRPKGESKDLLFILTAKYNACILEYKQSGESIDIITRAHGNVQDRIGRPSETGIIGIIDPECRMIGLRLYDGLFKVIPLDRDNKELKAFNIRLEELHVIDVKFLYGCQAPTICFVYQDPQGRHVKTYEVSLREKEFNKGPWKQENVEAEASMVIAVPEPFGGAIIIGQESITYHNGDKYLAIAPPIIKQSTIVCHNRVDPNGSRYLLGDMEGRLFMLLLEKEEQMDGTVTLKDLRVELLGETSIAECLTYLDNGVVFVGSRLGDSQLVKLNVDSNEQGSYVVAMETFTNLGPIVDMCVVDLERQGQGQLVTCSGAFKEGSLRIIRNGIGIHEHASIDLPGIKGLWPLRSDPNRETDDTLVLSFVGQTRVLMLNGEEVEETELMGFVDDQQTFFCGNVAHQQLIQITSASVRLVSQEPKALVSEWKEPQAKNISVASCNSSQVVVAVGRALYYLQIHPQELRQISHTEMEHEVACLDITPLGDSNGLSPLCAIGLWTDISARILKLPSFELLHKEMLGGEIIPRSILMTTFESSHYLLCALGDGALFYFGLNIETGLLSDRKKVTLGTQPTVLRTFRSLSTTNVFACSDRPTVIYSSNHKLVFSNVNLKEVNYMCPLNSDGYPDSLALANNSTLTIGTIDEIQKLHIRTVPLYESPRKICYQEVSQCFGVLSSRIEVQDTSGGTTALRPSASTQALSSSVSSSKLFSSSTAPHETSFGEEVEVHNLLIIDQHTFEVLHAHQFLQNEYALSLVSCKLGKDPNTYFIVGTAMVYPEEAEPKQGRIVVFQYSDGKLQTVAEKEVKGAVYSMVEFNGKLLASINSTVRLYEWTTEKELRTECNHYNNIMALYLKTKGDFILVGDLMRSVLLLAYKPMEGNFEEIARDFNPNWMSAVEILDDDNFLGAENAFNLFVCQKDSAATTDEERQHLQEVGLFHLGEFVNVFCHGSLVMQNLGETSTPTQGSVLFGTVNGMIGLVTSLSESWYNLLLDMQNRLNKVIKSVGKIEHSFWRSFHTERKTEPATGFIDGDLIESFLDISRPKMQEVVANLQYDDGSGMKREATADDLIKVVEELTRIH", "experiment": "ePL-tagged substrate degradation in DF15 multiple myeloma cells", "type": "cell-based", "procedure": "(§4) DF15 multiple myeloma cells stably expressing ePL-tagged Aiolos, Ikaros, or GSPT1, and MDS-L cells stably expressing ePL-tagged CK1a were generated via lentiviral infection with pLOC-ePL-Aiolos (or Ikaros, GSPT1, or CK1a). […] Compounds were dispensed by an acoustic dispenser (ATS acoustic transfer system from EDC Biosystems) into a 384-well plate in a 10-point dose response curve using 3-fold dilutions starting at 10 μM and going down to […]. Then, 25 μL of media (RPMI-1640+10% heat inactivated FBS+25 mM Hepes+1 mM Na pyruvate+1× NEAA+1×Pen Strep Glutamine) containing 5000 of DF15 or MSD-L cells was dispensed per well. Assay plates were incubated at 37° C. with 5% CO2 for 4 hours except 20 hours for GSPT1. After incubation, 25 μL of the InCELL Hunter detection reagent working solution (DiscoverX, catalogue no. 96-0002, Fremont, Calif.) was added to each well and incubated at room temperature for 60 min protected from light. After 60 min, luminescence was read on an Envision or PHERAstar luminescence reader.\n(§5) All substrate degradation curves were processed and evaluated using ActivityBase (IDBS), a data analysis software package. Ymin is minimum percent protein remaining."}, "ePL-tagged CK1a": {"molecular_target": "T3, ePL-tagged CK1a (Homo sapiens, UniProt P48729+Q96SW2)", "T3 construct": "expressed in transfected cells", "T3 sequence (P48729 whole entry)": "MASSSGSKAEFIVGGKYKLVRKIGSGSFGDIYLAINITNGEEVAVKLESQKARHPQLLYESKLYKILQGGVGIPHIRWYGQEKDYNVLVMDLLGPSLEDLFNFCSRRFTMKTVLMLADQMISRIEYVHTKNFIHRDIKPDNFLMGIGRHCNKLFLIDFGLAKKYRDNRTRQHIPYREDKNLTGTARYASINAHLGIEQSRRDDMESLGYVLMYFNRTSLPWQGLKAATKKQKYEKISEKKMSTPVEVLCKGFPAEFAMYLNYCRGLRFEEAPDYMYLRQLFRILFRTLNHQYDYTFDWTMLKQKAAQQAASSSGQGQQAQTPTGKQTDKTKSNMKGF", "T3 sequence (Q96SW2 whole entry)": "as the sequence (Q96SW2 whole entry) above", "T3 sequence (Q16531 whole entry partner)": "as the sequence (Q16531 whole entry partner) above", "experiment": "ePL-tagged substrate degradation in MDS-L cells", "type": "cell-based", "procedure": "as §4\nTo determine the EC50 value of a compound for the degradation of a given substrate (concentration of compound that achieves half the maximum degradation observed), a four-parameter logistic model (sigmoidal dose—response model) (FIT=(A+{(B−A)/1+[(C/x)D]})) where C is the inflection point (EC50), D is the […], and A and B are the low and high limits of the fit, respectively) was used. All substrate degradation curves were processed and evaluated using ActivityBase (IDBS), a data analysis software package. Ymin is minimum percent protein remaining."}, "Helios": {"molecular_target": "T4, Helios (Homo sapiens, UniProt Q96SW2+Q9UKS7)", "T4 construct": "endogenous in cells; host or cells: Jurkat/Helios/HiBit cells (CRISPR/Cas9 knock-in)", "T4 sequence (Q9UKS7 whole entry)": "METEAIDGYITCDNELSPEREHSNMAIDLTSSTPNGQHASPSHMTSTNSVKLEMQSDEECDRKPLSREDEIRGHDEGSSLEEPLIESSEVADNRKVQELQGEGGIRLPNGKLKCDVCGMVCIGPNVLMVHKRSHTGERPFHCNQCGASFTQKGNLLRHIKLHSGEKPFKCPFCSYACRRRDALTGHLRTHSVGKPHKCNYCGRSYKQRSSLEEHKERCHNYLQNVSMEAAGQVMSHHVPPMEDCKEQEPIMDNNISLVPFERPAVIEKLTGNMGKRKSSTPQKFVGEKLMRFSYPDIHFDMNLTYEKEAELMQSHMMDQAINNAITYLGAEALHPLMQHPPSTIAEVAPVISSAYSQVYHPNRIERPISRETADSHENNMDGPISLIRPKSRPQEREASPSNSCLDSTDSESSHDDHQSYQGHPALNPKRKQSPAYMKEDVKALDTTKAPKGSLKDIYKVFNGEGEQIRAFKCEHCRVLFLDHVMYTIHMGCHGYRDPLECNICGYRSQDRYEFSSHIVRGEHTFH", "T4 sequence (Q96SW2 whole entry)": "as the sequence (Q96SW2 whole entry) above", "T4 sequence (Q16531 whole entry partner)": "as the sequence (Q16531 whole entry partner) above", "experiment": "Helios HiBit degradation in Jurkat cells", "type": "cell-based", "procedure": "For Helios, a stable Jurkat cell line was engineered using CRISPR/Cas9 to insert an in-frame HiBit tag into the carboxy-terminal reading frame of the IKZF2 gene. Test compounds were transferred to 1536 well plates using an acoustic dispenser, and Jurkat/Helios/HiBit cells in DMEM/10% FCS were plated at 10,000 cells/well in a final volume of 5 ul. Cells were incubated at 37C, 95% RH for 18 hr. Luciferase activity was measured by adding 2 ul/well of Nano-Glo reagent (Promega), incubating at RT for 30 min, and reading luminescence on a microtiter plate reader.\nas §5"}, "[6]": {"tested_on": "CD19 CARs tagged with IKZF1 ZNF2_ZNF3 Q1F", "experiment": "Small-molecule screen: Q1F degron-tagged CD19 CAR levels in Jurkat cells, flow cytometry", "type": "cell-based, human", "settings": "versus Helios, Aiolos, Ikaros, GSPT1, CK1a"}}}
{"smiles": "Cc1ncccc1N1CCN(Cc2ccc3c(c2)CN(C2CCC(=O)NC2=O)C3=O)CC1", "note": "(stereo not shown) [Compound C, 3-(5-((4-(2-methylpyridin-3-yl)piperazin-1-yl)methyl)-1-oxoisoindolin-2-yl)piperidine-2,6-dione]", "values": [{"measurement": "levels of tagged CAR", "setting": "[1]", "result": "remained identical to untagged CAR"}, {"measurement": "tagged CAR remaining", "setting": "[2]; WT Jurkat cells, 1 hour", "result": "below 20%"}, {"measurement": "tagged CAR degradation in the presence of inhibitor", "setting": "[2]; WT Jurkats, 2 hours, 20 nM or 200 nM, alongside 2 μM MLN4924 or 2 μM Bortezomib", "result": "failure to degrade tagged CAR"}, {"measurement": "decrease of signaling (tdTomato reporter)", "setting": "[3]", "result": "around 30%"}, {"measurement": "surface levels of ZNF2_3 Q1F-tagged CAR", "setting": "[4]", "result": "could be titrated"}, {"measurement": "effector function of primary CAR T cells (killing and cytokine production)", "setting": "[5]", "result": "could be titrated"}, {"measurement": "Ymin (%)", "setting": "ePL-tagged Aiolos", "result": 83, "unit": "%"}, {"measurement": "DC50", "setting": "ePL-tagged Aiolos; Aiolos, DF15 cells, 4 hours, read-out: EC50 (the source's name)", "result": "> 10", "unit": "µM"}, {"measurement": "Ymin (%)", "setting": "ePL-tagged CK1a", "result": 98, "unit": "%"}, {"measurement": "DC50", "setting": "ePL-tagged CK1a; CK1a, MDS-L cells, 4 hours, read-out: EC50 (the source's name)", "result": "> 10", "unit": "µM"}, {"measurement": "Ymin (%)", "setting": "Helios", "result": 86, "unit": "%"}, {"measurement": "DC50", "setting": "Helios; Helios, Jurkat/Helios/HiBit cells, 18 hr, read-out: EC50 (the source's name)", "result": "> 10", "unit": "µM"}, {"measurement": "selectivity for the Q1F degron (in words)", "setting": "[6]", "result": "highly selective for the Q1F degron"}]}
